According to the supplement of paper PMC5412046:
Structures can show the parent of a compound that is named as a salt.

Columns and labels:
[1] = tested on: SB.msgc-1; experiment: AC50 for growth inhibition (viability) (log10 M); higher = less potent; details: SB.msgc-1 (sporadic gastric cancer)
Summary of the method: (§1)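 In 1536-well plates, each well held 500 patient-derived gastric cancer cells (hereditary or sporadic) in 5 μL medium. Compound in DMSO, 23 nL per well, was pinned in 11 threefold dilutions starting at a final 46 μM. Following 48 h of exposure, cells had CellTiter-Glo for 30 min at room temperature before ViewLux luminescence reading. Only high-quality curve classes from four-parameter fits of DMSO-normalised viability gave the log half-maximal activity concentration.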

[2] = tested on: SB.mhdgc-1; experiment: as above; details: SB.mhdgc-1 (hereditary c.1380delA CDH1 gastric cancer)
Summary of the method: as §1

Row | Structure (SMILES) | AC50 for growth inhibition (log10 M) [1] | AC50 for growth inhibition (log10 M) [2]
1 | CNC(=O)c1ccc(N2C(=S)N(c3ccc(C#N)c(C(F)(F)F)c3)C(=O)C23CCC3)cc1F [RD-162] | -5.13 | -5.08
2 | Cc1cc(Nc2cc(NC(=O)c3c(Cl)cccc3Cl)ccn2)nc(N)n1 [RO495] | -6.38 | -5.58
3 | Cc1cnc(NC(=O)Nc2cc(Br)c(C)cc2OC[C@@H]2CNCCO2)cn1 [Rabusertib] | -5.88 | -4.88
4 | CC(=O)SCC(Cc1ccccc1)C(=O)NCC(=O)OCc1ccccc1 (configuration not stated) [Racecadotril] | -6.23 | -6.68
5 | O=C(c1ccc(OCCN2CCCCC2)cc1)c1c(-c2ccc(O)cc2)sc2cc(O)ccc12 [Raloxifene hydrochloride] | -5.18 | -6.88
6 | Cc1nc2ccc(CN(C)c3ccc(C(=O)N[C@@H](CCC(=O)O)C(=O)O)s3)cc2c(=O)[nH]1 [Raltitrexed] | -7.28 | -7.48
7 | CCOC(=O)[C@H](CCc1ccccc1)N[C@@H](C)C(=O)N1[C@H](C(=O)O)C[C@@H]2CCC[C@@H]21 [Ramipril] | -4.73 | -5.18
8 | CO[C@@H]1[C@@H](O)[C@H](O)[C@@H](n2c3c(Cl)cccc3c3c4c(c5c6cccc(Cl)c6[nH]c5c32)C(=O)NC4=O)O[C@H]1CO [Rebeccamycin] | -6.43 | -6.83
9 | CNC(=O)c1cc(Oc2ccc(NC(=O)Nc3ccc(Cl)c(C(F)(F)F)c3)c(F)c2)ccn1 [Regorafenib] | -4.83 | -4.78
10 | COC(=O)C1C2CC3c4[nH]c5cc(OC)ccc5c4CCN3CC2CC(OC(=O)c2cc(OC)c(OC)c(OC)c2)C1OC (configuration not stated) [Reserpine] | -5.43 | -5.43
11 | C=CCNc1c(O)cc2c(O)c1C[C@@H](C)C[C@H](OC)[C@H](O)[C@@H](C)/C=C(/C)[C@H](OC(N)=O)[C@@H](OC)/C=C\C=C(\C)C(=O)N2 [Retaspimycin] | -7.48 | -6.88
12 | c1nc2c(NC3CCCCC3)nc(Nc3ccc(N4CCOCC4)cc3)nc2[nH]1 [Reversine] | -4.73 | -4.63
13 | CO[C@H]1/C=C/O[C@@]2(C)Oc3c(C)c(O)c4c(O)c(c(/C=N\N5CCN(C6CCCC6)CC5)c(O)c4c3C2=O)NC(=O)/C(C)=C\C=C\[C@H](C)[C@H](O)[C@@H](C)[C@@H](O)[C@@H](C)[C@H](OC(C)=O)[C@@H]1C [Rifapentine] | -6.33 | -7.38
14 | Cc1c(C(=O)NN2CCCCC2)nn(-c2ccc(Cl)cc2Cl)c1-c1ccc(Cl)cc1 [Rimonabant] | -4.63 | -4.78
15 | COc1cc(C(C)C)c(Oc2cnc(NC(CO)CO)nc2N)cc1I [Ro 51] | -6.18 | -6.63
16 | C[N]1C=C(C2=C1C=CC=C2)\C3=C(\C(=O)NC3=O)C4=C5CC(CN)CC[N]5C6=C4C=CC=C6 (configuration not stated) [Ro-31-8425] | -4.78 | -4.88
17 | CCCn1c(=O)c2[nH]c(C34CC5CC3C[C@@H](C5)C4)nc2n(CCC)c1=O [Rolofylline] | -4.83 | -4.68
18 | C/C=C1\NC(=O)[C@H]2CSSCC/C=C\[C@H](CC(=O)N[C@H](C(C)C)C(=O)N2)OC(=O)[C@H](C(C)C)NC1=O [Romidepsin] | -7.83 | -7.63

Row | Structure (SMILES) | AC50 for growth inhibition (log10 M) [1] | AC50 for growth inhibition (log10 M) [2]
19 | C=C(C)[C@H]1Cc2c(ccc3c2O[C@@H]2COc4cc(OC)c(OC)cc4[C@@H]2C3=O)O1 [Rotenone] | -6.33 | -5.38
20 | COc1cc2c(cc1OC)[C@@H]1Cc3ccc(OC)c(OC)c3CN1CC2 [Rotundine] | -4.73 | -5.28
21 | CC(C)Nc1cc(C(F)(F)F)cc2nc(NC(=O)c3cccnc3)nn12 [S-99] | -5.08 | -5.28
22 | COc1ccc([C@@H]2CNC(=O)C2)cc1OC1CCCC1 [S-(+)-Rolipram] | -5.58 | -5.58
23 | CNC1CCC(N(Cc2cccc(-c3ccncc3)c2)C(=O)c2sc3ccccc3c2Cl)CC1 (configuration not stated) [SAG] | -4.88 | -4.93
24 | CCOc1cc(C(=O)Nc2ccc(Cl)c(-c3nc4ccccc4[nH]3)c2)cc(OCC)c1OCC [SANT-2] | -5.18 | -5.93
25 | CC(C)N(CCCNC(=O)Nc1ccc(C(C)(C)C)cc1)C[C@H]1O[C@@H](n2cc(Br)c3c(N)ncnc32)[C@H](O)[C@@H]1O [SGC0946] | -4.53 | -4.68
26 | CN1CCC(CNc2ccc3ncc(-c4cccc(OC(F)(F)F)c4)n3n2)CC1 [SGI-1776] | -4.83 | -5.03
27 | Cn1cc(-c2ccc3nnc(Sc4ccc5ncccc5c4)n3n2)cn1 [SGX-523] | -4.78 | -5.13
28 | N#C/C(=C(/N)Sc1ccc(N)cc1)c1ccccc1C(F)(F)F [SL-327] | -5.13 | -5.28
29 | CN[C@@H](C)C(=O)N[C@H]1CCCC[C@H]2CC[C@@H](C(=O)N[C@@H](c3ccccc3)c3cn(CCCCc4ccc(CCCCn5cc([C@@H](NC(=O)[C@@H]6CC[C@@H]7CCCC[C@H](NC(=O)[C@H](C)NC)C(=O)N76)c6ccccc6)nn5)cc4)nn3)N2C1=O [SM-164] | -4.68 | -5.88
30 | CCC1=C2CN3C(=O)\C4=C(/C=C3/C2=NC5=CC=C(O)C=C15)[C@@](O)(CC)C(=O)OC4 [SN-38] | -8.08 | -8.48
31 | CC1(C)CC(=O)c2c(C(F)(F)F)nn(-c3ccc(C(N)=O)c(NC4CCC(O)CC4)c3)c2C1 (configuration not stated) [SNX-2112] | -7.43 | -6.48
32 | CC1(C)CC(=O)c2c(C(F)(F)F)nn(-c3ccc(C(N)=O)c(NC4CCC(OC(=O)CN)CC4)c3)c2C1 (configuration not stated) [SNX-5422] | -7.13 | -6.58
33 | Cc1ccc(-c2ncn(-c3ccc(Nc4nccc(-c5cccc(N6CCOCC6)c5)n4)cc3)n2)cn1 [SR-3306] | -7.13 | -6.18
34 | Cc1c[nH]c(/C=C2\C(=O)Nc3ccccc32)c1CCC(=O)O [SU-5402] | -4.73 | -4.68
35 | CN(C)[S+](=O)([O-])c1ccc2c(c1)C(=Cc1cc3c([nH]1)CCCC3)C(=O)N2 [SU-6656] | -5.43 | -5.28
36 | C[C@H](NCc1ccc(OCc2cccc(F)c2)cc1)C(N)=O [Safinamide mesilate] | -4.78 | -5.08
